Data taken from EP3885436A1, “POLYPEPTIDES WITH PEROXIDASE ACTIVITY” (Technische Universität Wien, priority 2020, dated 2021).
Where two headings read alike, the source gives them in different places.

Columns and labels:
Format in all cases: biochemical
[1] = target: T1, horseradish peroxidase variant HRP N13D/N57S/P146Q/N175S/N255D/N268D/N275K (mHRP, SEQ ID NO: 4), produced in E. coli (Armoracia rusticana, UniProt P00433, N205S/N285D/N298D/N305K/N43D/N87S/P176Q)
T1 construct: made in house
Procedure: (§1) Plant HRP Type VI-A (Cat. No.: P6782) was obtained from Sigma-Aldrich (St. Louis, MO, USA). All HRP variants produced in E. coli consisted of the sequence as set forth in SEQ ID NO: 2 with the indicated mutations unless specified otherwise.
(§2) For measurements with 3,3',5,5'-tetramethylbenzidine (TMB) as substrate, the reaction mixture in each well of the 96-well plate contained a saturating hydrogen peroxide concentration of 1 mM and varying TMB concentrations (20 - 550 µM) in 50 mM phosphate-citrate buffer pH 5 in a final volume of 200 µL. Protein sample (5 µL) was mixed with 175 µl TMB-buffer mixture and the reaction was started with 20 µl hydrogen peroxide solution (10 mM). The increase in absorption was followed at 652 nm for 60s at 30 °C in a Tecan Infinite M200 PRO instrument. The kinetic parameters were calculated using Sigma Plot software (Systat Software INC., San Jose, CA, USA) and an extinction coefficient of ε652 = 39 mM^-1 cm^-1 (see Josephy, et al. "The horseradish peroxidase-catalyzed oxidation of 3, 5, 3', 5'-tetramethylbenzidine. Free radical and charge-transfer complex intermediates." Journal of Biological Chemistry 257.7 (1982): 3669-3675).
(§3) The increase in absorption was followed at 420 nm for 120 s at 30 °C in a Tecan Infinite M200 PRO instrument. The kinetic parameters were calculated using Sigma Plot software (Systat Software INC., San Jose, CA, USA) and an extinction coefficient of ε420 = 36 mM^-1 cm^-1 (see Childs and Bardsley. "The steady-state kinetics of peroxidase with 2, 2'-azino-di-(3-ethyl-benzthiazoline-6-sulphonic acid) as chromogen." Biochemical Journal 145.1 (1975): 93-103).
as §3

[2] = target: T2, horseradish peroxidase variant HRP N13D/N57S/N175S/N255D/N268D, produced in E. coli (Armoracia rusticana, UniProt P00433, N205S/N285D/N298D/N43D/N87S)
T2 construct: made in house
T2 sequence (P00433 31-338 N43D/N87S/N205S/N285D/N298D): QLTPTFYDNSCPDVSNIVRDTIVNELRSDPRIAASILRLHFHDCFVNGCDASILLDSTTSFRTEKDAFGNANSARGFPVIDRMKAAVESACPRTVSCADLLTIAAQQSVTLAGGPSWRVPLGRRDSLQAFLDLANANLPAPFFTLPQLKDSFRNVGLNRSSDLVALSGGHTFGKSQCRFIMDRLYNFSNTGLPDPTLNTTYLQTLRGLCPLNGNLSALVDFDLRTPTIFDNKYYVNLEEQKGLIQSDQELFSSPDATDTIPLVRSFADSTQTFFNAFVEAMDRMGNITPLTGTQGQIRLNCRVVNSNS
Procedure: as §1, §2, §3, §3

[3] = target: T3, plant-derived HRP (pHRP), Plant HRP Type VI-A, horseradish peroxidase (Armoracia rusticana, UniProt P00433); assay: Enzyme kinetic parameters, 96-well plate assay; details: substrate TMB (20 - 550 µM), 1 mM H2O2, 50 mM phosphate-citrate buffer pH 5, 30 °C; Table 6
T3 construct: The plant-derived enzyme undergoes post-translational modifications, resulting inter alia in a free N-terminus without an appended methionine; purchased Sigma-Aldrich P6782; host or cells: extracted from the plant
T3 sequence (P00433 31-338 limits assumed): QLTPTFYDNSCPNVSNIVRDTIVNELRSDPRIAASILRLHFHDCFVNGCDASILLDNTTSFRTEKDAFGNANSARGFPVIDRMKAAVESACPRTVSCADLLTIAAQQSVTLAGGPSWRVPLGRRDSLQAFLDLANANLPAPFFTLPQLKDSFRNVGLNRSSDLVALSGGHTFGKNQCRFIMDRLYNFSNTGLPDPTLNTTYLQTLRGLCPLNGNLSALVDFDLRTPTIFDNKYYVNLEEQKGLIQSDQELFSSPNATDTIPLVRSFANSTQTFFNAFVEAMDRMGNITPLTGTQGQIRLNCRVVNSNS
Procedure: as §1, §2
(§4) The increase in absorption was followed at 420 nm for 120 s at 30 °C in a Tecan Infinite M200 PRO instrument. […]

[4] = target: T4, horseradish peroxidase, wild-type HRP (rHRP, variant C1A, SEQ ID NO: 2), produced in E. coli (Armoracia rusticana, UniProt P00433); assay: Enzyme kinetic parameters, 96-well plate assay; details: substrate TMB (20 - 550 µM), 1 mM H2O2, 50 mM phosphate-citrate buffer pH 5, 30 °C; Table 6
T4 construct: made in house
T4 sequence (P00433 with tags, fused parts or gaps): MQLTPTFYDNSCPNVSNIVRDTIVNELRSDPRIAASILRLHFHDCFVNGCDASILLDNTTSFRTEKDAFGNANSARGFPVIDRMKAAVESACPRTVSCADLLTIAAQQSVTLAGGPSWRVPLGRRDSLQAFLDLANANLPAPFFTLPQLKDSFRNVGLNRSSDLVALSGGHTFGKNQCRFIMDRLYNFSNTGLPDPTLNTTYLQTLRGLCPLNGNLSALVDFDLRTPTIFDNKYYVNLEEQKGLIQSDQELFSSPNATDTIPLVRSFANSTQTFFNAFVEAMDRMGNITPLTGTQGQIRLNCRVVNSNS
Procedure: as §1, §2, §4

[5] = substrate H2O2 (0.001 - 1 mM), 10 mM ABTS, 50 mM phosphate-citrate buffer pH 5, 30 °C, Table 3

T1 sequence (P00433 31-338 N43D/N87S/P176Q/N205S/N285D/N298D/N305K): as the sequence (P00433 31-338 N43D/N87S/N205S/N285D/N298D) above, with P146Q, N275K counted along it

SMILES | kcat [1, 5] [s⁻¹] | kcat [2, 5] [s⁻¹] | kcat ([1]; substrate TMB (20 - 550 µM), 1 mM H2O2, 50 mM phosphate-citrate buffer pH 5, 30 °C, Table 2 (Example 3)) [s⁻¹] | kcat ([1]; substrate TMB (20 - 550 µM), 1 mM H2O2, 50 mM phosphate-citrate buffer pH 5, 30 °C, Table 6 (Example 4)) [s⁻¹] | kcat ([2]; substrate TMB (20 - 550 µM), 1 mM H2O2, 50 mM phosphate-citrate buffer pH 5, 30 °C, Table 2) [s⁻¹] | kcat [3] [s⁻¹] | kcat [4] [s⁻¹]
OO [H2O2, hydrogen peroxide] | 1344 ± 22 | 1152 |  |  |  |  | 
Cc1cc(-c2cc(C)c(N)c(C)c2)cc(C)c1N [TMB, 3,3',5,5'-tetramethylbenzidine] |  |  | 4342 ± 292 | 4293 ± 171 | 3236 ± 193 | 4343 | 4169 ± 207
